Measured values taken from US10053453B2, “Compounds and their use as BACE inhibitors” (AstraZeneca AB, priority 2014, dated 2018).

Legend:
Human BACE1 = molecular target: T1, Human BACE1 (Homo sapiens, UniProt P56817); experiment: Diluted TR-FRET assay; assay type: biochemical; conditions: 50 times less enzyme, 6.5 h reaction time at r.t.; read-out: IC50 BACE1 (dil. TR-FRET)
T1 construct: the soluble part of the human β-Secretase1 (AA1-AA460) was cloned using the BACE1(1-460)-(AVT)-Fc-pGEN-IRES-neo mammalian expression vector; AVT linker (C); made in house
T1 sequence (P56817 22-460): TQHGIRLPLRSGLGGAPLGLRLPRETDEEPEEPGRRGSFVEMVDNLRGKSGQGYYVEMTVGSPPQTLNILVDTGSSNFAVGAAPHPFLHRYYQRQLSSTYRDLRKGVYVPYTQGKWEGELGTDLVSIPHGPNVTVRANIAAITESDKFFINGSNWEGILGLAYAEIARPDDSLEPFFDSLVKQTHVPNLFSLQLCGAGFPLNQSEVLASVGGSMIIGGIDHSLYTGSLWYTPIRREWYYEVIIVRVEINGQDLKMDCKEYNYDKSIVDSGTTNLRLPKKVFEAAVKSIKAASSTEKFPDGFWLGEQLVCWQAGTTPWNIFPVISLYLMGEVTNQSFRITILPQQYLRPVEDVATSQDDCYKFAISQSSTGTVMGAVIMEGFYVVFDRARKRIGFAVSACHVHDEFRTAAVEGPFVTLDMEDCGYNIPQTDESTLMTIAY
Procedure, shortened: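 Human BACE1 (residues 1-460) was fused to an IgG1 Fc affinity tag and stably expressed in HEK 293 cells. Using a Multidrop Combi, 7 μL enzyme was added to 0.8 μL compound in dimethylsulphoxide and incubated 10 minutes. Reactions were stopped with 5.5 μL NaOAC Stop solution (pH 9), and TR-FRET fluorescence was read on a Pherastar HTRF module.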

Human BACE2 = molecular target: T2, Human BACE2 (Homo sapiens, UniProt Q9Y5Z0); experiment: TR-FRET assay; assay type: biochemical; conditions: enzyme 2.7 μg/mL, substrate 100 nM, pH4.5
T2 construct: the soluble part of the human β-Secretase2 (AA1-AA473) was cloned using BACE2(1-473)-(AVT)-Fc-pDEST12.2 mammalian expression vector; AVT linker (C); made in house
T2 sequence (Q9Y5Z0 21-473): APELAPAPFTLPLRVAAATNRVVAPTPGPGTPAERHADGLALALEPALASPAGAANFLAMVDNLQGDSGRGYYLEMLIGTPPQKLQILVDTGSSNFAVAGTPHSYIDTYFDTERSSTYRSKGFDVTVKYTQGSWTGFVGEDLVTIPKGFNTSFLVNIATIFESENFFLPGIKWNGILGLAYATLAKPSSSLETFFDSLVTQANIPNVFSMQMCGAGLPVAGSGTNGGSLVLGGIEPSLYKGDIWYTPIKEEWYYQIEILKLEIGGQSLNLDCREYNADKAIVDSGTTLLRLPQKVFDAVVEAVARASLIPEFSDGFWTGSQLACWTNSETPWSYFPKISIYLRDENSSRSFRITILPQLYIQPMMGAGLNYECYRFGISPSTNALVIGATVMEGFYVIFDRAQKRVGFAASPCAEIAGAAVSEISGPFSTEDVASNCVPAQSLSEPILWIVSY

SH-SY5Y cells = experiment: sAPPβ release assay; conditions: Homo sapiens, SH-SY5Y, read-out: IC50 Cell (sAPPβ release, nM), SH-SY5Y cells, compounds incubated 16-17 h
Procedure: Cells were thawed and seeded at a concentration of around 10000 cells/well in DMEM/F-12 with Glutamax, 10% FCS and 1% non-essential amino acids to a 384-well tissue culture treated plate, 30 μL cell susp/well. The cell plates were then incubated for 7-24 h at 37° C., 5% CO2.
The cell medium was removed, followed by addition of 50 μL compound diluted in DMEM/F-12 with Glutamax, 10% FCS, 1% non-essential amino acids to a final cone of 0.5% DMSO. The compounds were incubated with the cells for 16-17 h (overnight) at 37° C., 5% CO2.
Meso Scale Discovery (MSD) plates were used for the detection of sAPP release. MSD sAPPβ plates were blocked in 1% BSA in Tris wash buffer for 1 h on shake at r.t. and washed 1 time in Tris wash buffer. […] The MSD plates were incubated with shaking at r.t. for 2 h and the media discarded. 10 μL detection antibody was added (1 nM) per well followed by incubation with shaking at r.t. for 2 h and then discarded. 35 μL Read Buffer was added per well and the plates were read in a Meso Scale Discovery SECTOR6000 Imager.

| IC50 (Human BACE1) | IC50 (Human BACE2) | IC50 (SH-SY5Y cells) | SMILES |
| --- | --- | --- | --- |
| 12.8 nM | 17.4 nM | 3.7 nM | [2H]C1([2H])OC(N)=N[C@]12c1cc(-c3cccc(Cl)c3)ccc1C[C@]21CC[C@@H](OC)[C@H](C)C1 [Compound 37, (1R,1′R,3R,4R)-6′-(3-chlorophenyl)-4-methoxy-3-methyl-3′H,5″H-dispiro[cyclohexane-1,2′-indene-1′,4″-oxazol]-5″,5″-d2-2″-amine] |
| 166 nM | 315 nM | 4.3 nM | CO[C@H]1CC[C@]2(CC1)Cc1ccc(-c3cncc(C#N)c3)cc1[C@@]21COC(N)=N1 [Compound 38, 5-((1r,1′R,4R)-2″-amino-4-methoxy-3′H,5″H-dispiro[cyclohexane-1,2′-indene-1′,4″-oxazol]-6′-yl)nicotinonitrile] |
| 4.7 nM | 50.7 nM | 4.3 nM | [2H]C1([2H])OC(N)=NC12c1cc(-c3cc(Cl)cc(C#N)c3)ccc1C[C@@]21C[C@@H](C)[C@H](OC)[C@@H](C)C1 (stereo partly drawn) [Compound 39, 3-((1r,3R,4r,5S)-2″-amino-4-methoxy-3,5-dimethyl-3′H,5″H-dispiro[cyclohexane-1,2′-indene-1′,4″-oxazol]-6′-yl-5″,5″-d2)-5-chlorobenzonitrile] |
| 32.9 nM | 118 nM | 4.4 nM | [2H]C1([2H])OC(N)=NC12c1cc(C([2H])([2H])C([2H])([2H])C(C)C)ccc1C[C@@]21C[C@@H](C)[C@H](OC)[C@@H](C)C1 (stereo partly drawn) [Compound 40, (1r,3R,4r,5S)-4-methoxy-3,5-dimethyl-6′-(3-methylbutyl-1,1,2,2-d4)-3′H,5″H-dispiro[cyclohexane-1,2′-indene-1′,4″-oxazol]-5″,5″-d2-2″-amine] |
| 307 nM | 221 nM | 7.3 nM | CO[C@H]1CC[C@]2(CC1)Cc1ccc(-c3cncc(C(F)(F)F)c3)cc1C21COC(N)=N1 (stereo partly drawn) [Compound 42, (1r,4r)-4-methoxy-6′-(5-(trifluoromethyl)pyridin-3-yl)-3′H,5″H-dispiro[cyclohexane-1,2′-indene-1′,4″-oxazol]-2″-amine] |
| 13.6 nM | 194 nM | 7.5 nM | [2H]C1([2H])OC(N)=NC12c1cc(CCC(C)C)ccc1C[C@@]21C[C@@H](C)[C@H](OC)[C@@H](C)C1 (stereo partly drawn) [Compound 43, (1r,3R,4r,5S)-6′-isopentyl-4-methoxy-3,5-dimethyl-3′H,5″H-dispiro[cyclohexane-1,2′-indene-1′,4″-oxazol]-5″,5″-d2-2″-amine] |
| 289 nM | 589 nM | 7.8 nM | [2H]C1([2H])OC(N)=NC12c1cc(OCCC(F)(F)F)ccc1C[C@]21CC[C@@H](OC)CC1 (stereo partly drawn) [Compound 45, (1r,4r)-4-methoxy-6′-(3,3,3-trifluoropropoxy)-3′H,5″H-dispiro[cyclohexane-1,2′-indene-1′,4″-oxazol]-5″,5″-d2-2″-amine] |
| 219 nM | 300 nM | 8.8 nM | CO[C@H]1CC[C@]2(CC1)Cc1ccc(-c3cncc(C#N)c3)cc1C21COC(N)=N1 (stereo partly drawn) [Compound 46, 5-((1r,4r)-2″-amino-4-methoxy-3′H,5″H-dispiro[cyclohexane-1,2′-indene-1′,4″-oxazol]-6′-yl)nicotinonitrile] |
| 166 nM | 69 nM | 15.8 nM | [2H]C1([2H])OC(N)=NC12c1cc(-c3cc(C#N)cc(OC)c3)ccc1C[C@@]21CC[C@H](O)[C@@H](C)C1 (stereo partly drawn) [Compound 49, 3-((1S,3S,4S)-2″-amino-4-hydroxy-3-methyl-3′H,5″H-dispiro[cyclohexane-1,2′-indene-1′,4″-oxazol]-6′-yl-5″,5″-d2)-5-methoxybenzonitrile] |
| 188 nM | 306 nM | 20.6 nM | CO[C@H]1CC[C@]2(CC1)Cc1ccc(CCC(C)C)cc1C21COC(N)=N1 (stereo partly drawn) [Compound 51, (1r,4r)-6′-isopentyl-4-methoxy-3′H,5″H-dispiro[cyclohexane-1,2′-indene-1′,4″-oxazol]-2″-amine] |
